These results are taken from patent US9789096B2, “Methods and compositions for selective and targeted cancer therapy” (Board of Regents of the University of Texas System, priority 2013, dated 2017).

The first experiment deals with H1819. The experiment is described as follows: Cell viability dose-response, H1819. The note with it: Homo sapiens, NCI-H1819, 12-point dose-response starting at 50 micromolar, 3-fold increments, in duplicate; read-out: toxicity data, H1819. The experiment is classed as cell-based, human. Summed up:
(§1)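 Viability read as total ATP (Cell Titer Glo) following 4 days' compound exposure, with IC50 derived from dose-response curves. Duplicate 12-point series, top concentration 50 micromolar with 3-fold steps, on cells seeded at 15% confluence in RPMI-1640, 5% FBS, 2 mM L-glutamine.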
As for `COc1ccccc1CCNC(=O)C(=O)Nc1ccc(Cl)cc1` [SW207004-1], the IC50 was no less than 49.5 µM.
Same read-out and setting: in the case of `O=C(NCCc1ccc(Br)cc1)C(=O)Nc1ccc(Cl)cc1` [SW207005-1] it was no less than 49.5 µM; in that of `Cc1cccc(CCNC(=O)C(=O)Nc2ccc(Cl)cc2)c1` [SW207006-1], no less than 49.5 µM; in that of `COc1ccc(CCNC(=O)C(=O)Nc2ccc(Cl)cc2)cc1OC` [SW207007-1], no less than 49.5 µM.
The same measure, in the same setting: the result for `O=C(NCCc1ccc(Cl)cc1)C(=O)Nc1ccc(Cl)cc1` [SW207008-1] reads no less than 49.5 µM; that for `COc1ccc(CCNC(=O)C(=O)Nc2ccccc2Br)cc1` [SW207009-1], no less than 49.5 µM.
On the same count and under the same terms, the result for `COc1ccc(CCNC(=O)C(=O)Nc2ccc(OC(F)(F)F)c([N+](=O)[O-])c2)cc1` [SW207010-1] reads no less than 49.5 µM; that for `COc1ccc(CCNC(=O)C(=O)Nc2cc(Cl)ccc2OC)cc1` [SW207011-1], no less than 49.5 µM.
Take `COc1ccc(CCNC(=O)C(=O)Nc2cc(C(F)(F)F)c(Br)c(C(F)(F)F)c2)cc1` [SW207012-1]: the IC50 is no less than 49.5 µM.
Same read-out and setting: the result for `COc1ccc(CCNC(=O)C(=O)Nc2ccc(Cl)cc2C(F)(F)F)cc1` [SW207013-1] reads no less than 49.5 µM.
Still for that read-out and setting: the result for `COc1ccc(CCNC(=O)C(=O)Nc2ccc(C)c(Br)c2)cc1` [SW207014-1] reads no less than 49.5 µM; that for `COc1ccc(CCNC(=O)C(=O)Nc2ccc(C(F)(F)F)c(Br)c2)cc1` [SW207015-1], no less than 49.5 µM.
The same measure, in the same setting: the result for `CCOc1cccc(NC(=O)C(=O)NCCc2ccc(OC)cc2)c1` [SW207016-1] reads no less than 49.5 µM; that for `COc1ccc(CCNC(=O)C(=O)Nc2ccc(C#N)cc2)cc1` [SW207017-1], no less than 49.5 µM.
As for `COc1ccc(CCNC(=O)C(=O)NCc2ccc(OC)cc2)cc1` [SW207018-1], the IC50 is no less than 49.5 µM.
On the same count and under the same terms, the result for `COc1ccc(CNC(=O)C(=O)NCc2ccc(OC)cc2)cc1` [SW207019-1] reads no less than 49.5 µM; that for `COc1ccc(CCNC(=O)C(=O)Nc2ccc(C)c(Cl)c2)cc1` [SW207020-1], no less than 49.5 µM; that for `COc1ccc(CCNC(=O)C(=O)Nc2cccc(C#N)c2)cc1` [SW207021-1], no less than 49.5 µM.

The subject of a further experiment is H2122. The experiment can be described thus: Cell viability dose-response, H2122. The class given is cell-based, human. The conditions noted are these: Homo sapiens, NCI-H2122, 12-point dose-response starting at 50 micromolar, 3-fold increments, in duplicate; read-out: toxicity data, H2122. The gist of the method:
as §1
As to `COc1ccccc1CCNC(=O)C(=O)Nc1ccc(Cl)cc1` [SW207004-1], the IC50 was no less than 49.5 µM.
With `O=C(NCCc1ccc(Br)cc1)C(=O)Nc1ccc(Cl)cc1` [SW207005-1], the IC50 is no less than 49.5 µM.
Still for that read-out and setting: the result for `Cc1cccc(CCNC(=O)C(=O)Nc2ccc(Cl)cc2)c1` [SW207006-1] reads no less than 49.5 µM; that for `COc1ccc(CCNC(=O)C(=O)Nc2ccc(Cl)cc2)cc1OC` [SW207007-1], no less than 49.5 µM; that for `O=C(NCCc1ccc(Cl)cc1)C(=O)Nc1ccc(Cl)cc1` [SW207008-1], no less than 49.5 µM.
With `COc1ccc(CCNC(=O)C(=O)Nc2ccccc2Br)cc1` [SW207009-1], the IC50 is no less than 49.5 µM.
Still for that read-out and setting: in the case of `COc1ccc(CCNC(=O)C(=O)Nc2ccc(OC(F)(F)F)c([N+](=O)[O-])c2)cc1` [SW207010-1] it was 0.331 µM; in that of `COc1ccc(CCNC(=O)C(=O)Nc2cc(Cl)ccc2OC)cc1` [SW207011-1], no less than 49.5 µM.
Consider `COc1ccc(CCNC(=O)C(=O)Nc2cc(C(F)(F)F)c(Br)c(C(F)(F)F)c2)cc1` [SW207012-1], for which the IC50 worked out at 11.8 µM.
The same measure, in the same setting: the result for `COc1ccc(CCNC(=O)C(=O)Nc2ccc(Cl)cc2C(F)(F)F)cc1` [SW207013-1] reads no less than 49.5 µM.
The same measure, in the same setting: in the case of `COc1ccc(CCNC(=O)C(=O)Nc2ccc(C)c(Br)c2)cc1` [SW207014-1] it was 0.89 µM; in that of `COc1ccc(CCNC(=O)C(=O)Nc2ccc(C(F)(F)F)c(Br)c2)cc1` [SW207015-1], 0.456 µM; in that of `CCOc1cccc(NC(=O)C(=O)NCCc2ccc(OC)cc2)c1` [SW207016-1], 23.8 µM.
Turning to `COc1ccc(CCNC(=O)C(=O)Nc2ccc(C#N)cc2)cc1` [SW207017-1], the IC50 came out at 0.712 µM.
Same read-out and setting: the result for `COc1ccc(CCNC(=O)C(=O)NCc2ccc(OC)cc2)cc1` [SW207018-1] reads no less than 49.5 µM; that for `COc1ccc(CNC(=O)C(=O)NCc2ccc(OC)cc2)cc1` [SW207019-1], no less than 49.5 µM.
For `COc1ccc(CCNC(=O)C(=O)Nc2ccc(C)c(Cl)c2)cc1` [SW207020-1], the IC50 was determined as 0.602 µM.
Same read-out and setting: the result for `COc1ccc(CCNC(=O)C(=O)Nc2cccc(C#N)c2)cc1` [SW207021-1] reads 0.407 µM.

The subject of another experiment is HBEC30KT. The experiment can be described thus: Cell viability (ATP, Cell Titer Glo, 4 days), HBEC30KT. The note with it: Homo sapiens, 12-point dose-response starting at 50 micromolar, 3-fold increments, in duplicate; read-out: toxicity data, HBEC30KT. The class given is cell-based, human. The procedure:
FIG. 6A. […] Cell viability is plotted vs. compound concentration. Compound was added to cells plated at 15% confluence in 96-well plates in RPMI-1640 media supplemented with 5% Fetal Bovine Serum and 2 mM L-Glutamine. After 4 days of incubation, ATP levels were measured using Cell Titer Glo (Promega). Data are presented as the average of 2 replicates ±SEM.
Selectivity may be measured by the half maximal inhibitory concentration (IC50), which, as used herein, is a measure of the effectiveness of a compound in killing cells. This quantitative measure indicates how much of a particular compound is needed to kill a particular cell population by half (e.g., as indicated by the amount of ATP). […] The IC50 can be determined by constructing a dose-response curve. The lower the IC50, the higher the potency, and the greater the difference between IC50 values for different cell lines (e.g., sensitive lines vs. insensitive lines, and sensitive lines vs. normal lines) the greater the selectivity. […]
On the technique in general: ATP-based viability assays read luminescence as a measure of living cells.
Take `COc1ccccc1CCNC(=O)C(=O)Nc1ccc(Cl)cc1` [SW207004-1]: the IC50 stood at 49.5 µM.
Still for that read-out and setting: in the case of `O=C(NCCc1ccc(Br)cc1)C(=O)Nc1ccc(Cl)cc1` [SW207005-1] it was 49.5 µM; in that of `Cc1cccc(CCNC(=O)C(=O)Nc2ccc(Cl)cc2)c1` [SW207006-1], 49.5 µM.
Still for that read-out and setting: in the case of `COc1ccc(CCNC(=O)C(=O)Nc2ccc(Cl)cc2)cc1OC` [SW207007-1] it was 49.5 µM.
Still for that read-out and setting: in the case of `O=C(NCCc1ccc(Cl)cc1)C(=O)Nc1ccc(Cl)cc1` [SW207008-1] it was 49.5 µM; in that of `COc1ccc(CCNC(=O)C(=O)Nc2ccccc2Br)cc1` [SW207009-1], 49.5 µM.
In the case of `COc1ccc(CCNC(=O)C(=O)Nc2ccc(OC(F)(F)F)c([N+](=O)[O-])c2)cc1` [SW207010-1], the IC50 was found to be 49.5 µM.
On to `COc1ccc(CCNC(=O)C(=O)Nc2cc(Cl)ccc2OC)cc1` [SW207011-1], for which the IC50 turned out to be 49.5 µM.
The same measure, in the same setting: the result for `COc1ccc(CCNC(=O)C(=O)Nc2cc(C(F)(F)F)c(Br)c(C(F)(F)F)c2)cc1` [SW207012-1] reads 18 µM; that for `COc1ccc(CCNC(=O)C(=O)Nc2ccc(Cl)cc2C(F)(F)F)cc1` [SW207013-1], 49.5 µM.
Same read-out and setting: the result for `COc1ccc(CCNC(=O)C(=O)Nc2ccc(C)c(Br)c2)cc1` [SW207014-1] reads 49.5 µM.
Consider `COc1ccc(CCNC(=O)C(=O)Nc2ccc(C(F)(F)F)c(Br)c2)cc1` [SW207015-1], for which the IC50 is 44.1 µM.
Still for that read-out and setting: in the case of `CCOc1cccc(NC(=O)C(=O)NCCc2ccc(OC)cc2)c1` [SW207016-1] it was 49.5 µM.
On the same count and under the same terms, the result for `COc1ccc(CCNC(=O)C(=O)Nc2ccc(C#N)cc2)cc1` [SW207017-1] reads 49.5 µM; that for `COc1ccc(CCNC(=O)C(=O)NCc2ccc(OC)cc2)cc1` [SW207018-1], 49.5 µM.
Same read-out and setting: in the case of `COc1ccc(CNC(=O)C(=O)NCc2ccc(OC)cc2)cc1` [SW207019-1] it was 49.5 µM; in that of `COc1ccc(CCNC(=O)C(=O)Nc2ccc(C)c(Cl)c2)cc1` [SW207020-1], 49.5 µM; in that of `COc1ccc(CCNC(=O)C(=O)Nc2cccc(C#N)c2)cc1` [SW207021-1], 49.5 µM.
